Laboratory results: patent US8012971B2, “Therapeutic agent for chronic obstructive pulmonary disease” (Dainippon Sumitomo Pharma Co., Ltd., priority 2005, dated 2011)

Columns and labels:
Format in all cases: in vivo
[1] = tested on: Guinea Pig Chronic Obstructive Pulmonary Disease (COPD) Model; test: Airway resistance (sRaw) in guinea pig COPD model (cigarette smoke exposure); conditions: 10 mg/kg/day oral; 1 week of cigarette smoke exposure; mean ± SEM of 8 animals
Protocol: (§1) An evaluation was carried out as follows according to a report of Kosuke MORIZUMI, Junichi FUCHIGAMI et al., 2002, The 75th Annual Meeting of the Japanese Pharmacological Society (2002) Abstract No. P-259, “Study of a chronic obstructive pulmonary disease-Effects of theophylline on respiratory function and lung function of guinea pigs in an exposure of cigarette smoke.”
(§2) Male Hartley strain guinea pigs (purchased from Japan SLC, Inc.) were taken in a cigarette exposure holder (RMH-TUBES, manufactured by Muenster Ltd.) to secure them to an exposure chamber (Flow-past type nose-only inhalation chamber, manufactured by Muenster Ltd.), and allowed to inhale cigarette smoke (Hi-Lite, manufactured by Japan Tobacco Inc.) for 60 minutes per day for 5 days in a week, totally 4 weeks using a smoking exposure equipment (Hamburg II, manufactured by Borgwaldt Technik), while the exposure was carried out for 4 days in the 4th week. • (2) Drug Administrations
(§3) Each 0.5% MC suspension of a test drug was orally administered daily in 5 ml/weight (kg) once a day for 25 days from the first day of the exposure. To a sham-exposure group and a control group was orally administered a 0.5% MC suspension in a similar manner. Any oral administrations were carried out 0.5 to 1 hours before exposures on a cigarette-smoke-exposure day or after measurements when measuring respiratory functions. A drug was not administered on the day for measurement of respiratory functions after finishing the 4th week of the exposure. • (3) Measurements of Airway Resistance
Specific airway resistances (sRaw) in guinea pigs were measured during awakening by double-flow plethysmography using general respiratory function analysis system (PULMOS-I, manufactured by M•I•P•S Corp.). Measurements were carried out before the exposure and on the day after finishing the 1st, 2nd, 3rd and 4th weeks of the exposure. Each 100 breathings of respiratory functions were individually measured, and the average values were obtained as measured values. A rate of change of airway resistances was calculated by the following equation. Rate of change of each measured week (%)=100×(a measured value on each measured date−a measured value before starting exposures of cigarette smoke)/a measured value before starting exposures of cigarette smoke

[2] = tested on: Guinea Pig Chronic Obstructive Pulmonary Disease (COPD) Model; test: Lung functions (FRC, RV) in guinea pig COPD model; conditions: 10 mg/kg/day oral; after 4th week of exposure; mean ± SEM of 8 animals
Protocol: as §1, §2, §3
After measuring airway resistances in the 4th week, animals were cut open their tracheas under urethane-anesthetizing ([…], i.p.), cannulated on the side of lung, fixed by ligation, and measured residual volumes (RV) and functional residual capacities (FRC) by lung functions measuring system (Biosystem for maneuver, manufactured by Buxco Electronics).

[3] = tested on: Guinea Pig Chronic Obstructive Pulmonary Disease (COPD) Model; test: Inflammatory cells in bronchoalveolar fluid in guinea pig COPD model; conditions: 10 mg/kg/day oral; mean ± SEM of 8 animals
Protocol: as §1, §2, §3
After measuring lung functions, animals were exsanguinated to death and opened the thorax, ligated the left bronchial bifurcation, and then injected saline (2.5 mL) into the right lung and aspirated the same via fixed cannula on measuring lung functions repeatedly in twice (totally 5 mL), and the recovery solution was obtained as a bronchoalveolar lavage fluid (BALF). BALF was centrifuged (230×g, 4° C., for 10 minutes) to give cell pellets. The pellets were suspended in saline (0.5 mL), and to a part of the suspension was added Turk solution (manufactured by Wako Pure Chemical Industries, Ltd.) so as to dilute 10 to 20 folds. Leukocyte numbers per 0.1 μL were measured by a blood cell counting chamber and leukocyte numbers per 1 μL were calculated. Cell suspensions were prepared again, smears were prepared using about 2000 to 3000 total cell numbers, May-Grunwald-Giemsa stain was carried out, leukocyte numbers were counted under the microscope, a ratio of each leukocyte number to total leukocyte number was obtained, and each cell number per 1 μL was calculated based on the ratio. Results are shown in each cell number per 1 μL.

[4] = tested on: Guinea Pig Chronic Obstructive Pulmonary Disease (COPD) Model; test: Histological investigations of lung in guinea pig COPD model; conditions: 10 mg/kg/day for 25 days; 8 animals
Protocol: as §1, §2, §3
After collection of BALF, trachea and lung were isolated. The ligation site of the left lung was opened, injected neutral formalin buffer into trachea, bronchi and lung at the pressure of 20 cm H2O via cannula fixed on the side of the lung, and the lung tissue was extended to be fixed. According to a conventional method, tissue section samples were produced using posterior lobe of the left lung and hematoxylin-eosin (HE) stain was carried out. Any other lung tissues were stored in neutral formalin buffers. Drug efficacies of the produced tissue samples were evaluated by scoring tissue changes under the microscope. The criteria of scores were shown as follows: −: none, ±: minimal, +: mild, ++: moderate, +++: severe. Each quantification was calculated as 0, 1, 2, 3, 4.

Cn1c(=O)c2[nH]cnc2n(C)c1=O [theophylline, Theophylline, reference compound]
Specific airway resistance (sRaw) % increase from pre value [1]: 15.02 ± 6.73%
Functional residual capacity (FRC) [2]: 6.916 ± 0.234 mL
Residual volume (RV) [2]: 1.962 ± 0.417 mL
Cell number in BALF, Macrophage [3]: 2068 ± 362 cells/μL
Cell number in BALF, Neutrophil [3]: 1072 ± 322 ^NS cells/μL
Cell number in BALF, Total [3]: 3578 ± 583 cells/μL
Number of animals with grade + (mild): A. Hyperplasia, epithelial cell, bronchus [4]: 0
Number of animals with grade + (mild): B. Cellular exudation, neutrophil/eosinophil, lumen, bronchiole [4]: 0
Number of animals with grade + (mild): C. Thickening, alveolar wall [4]: 1
Number of animals with grade + (mild): D. Accumulation, foamy/macrophage-like cell, alveolus [4]: 1
Number of animals with grade + (mild): E. Cellular infiltration, neutrophil, alveolus [4]: 0
Number of animals with grade ++ (moderate): A. Hyperplasia, epithelial cell, bronchus [4]: 0
Number of animals with grade ++ (moderate): B. Cellular exudation, neutrophil/eosinophil, lumen, bronchiole [4]: 0
Number of animals with grade ++ (moderate): C. Thickening, alveolar wall [4]: 0
Number of animals with grade ++ (moderate): D. Accumulation, foamy/macrophage-like cell, alveolus [4]: 0
Number of animals with grade ++ (moderate): E. Cellular infiltration, neutrophil, alveolus [4]: 0
Number of animals with grade +++ (severe): A. Hyperplasia, epithelial cell, bronchus [4]: 0
Number of animals with grade +++ (severe): B. Cellular exudation, neutrophil/eosinophil, lumen, bronchiole [4]: 0
Number of animals with grade +++ (severe): C. Thickening, alveolar wall [4]: 0
Number of animals with grade +++ (severe): D. Accumulation, foamy/macrophage-like cell, alveolus [4]: 0
Number of animals with grade +++ (severe): E. Cellular infiltration, neutrophil, alveolus [4]: 0
Number of animals with grade ± (minimal): A. Hyperplasia, epithelial cell, bronchus [4]: 1
Number of animals with grade ± (minimal): B. Cellular exudation, neutrophil/eosinophil, lumen, bronchiole [4]: 0
Number of animals with grade ± (minimal): C. Thickening, alveolar wall [4]: 0
Number of animals with grade ± (minimal): D. Accumulation, foamy/macrophage-like cell, alveolus [4]: 1
Number of animals with grade ± (minimal): E. Cellular infiltration, neutrophil, alveolus [4]: 1
Number of animals with grade − (none): A. Hyperplasia, epithelial cell, bronchus [4]: 7
Number of animals with grade − (none): B. Cellular exudation, neutrophil/eosinophil, lumen, bronchiole [4]: 8
Number of animals with grade − (none): C. Thickening, alveolar wall [4]: 7
Number of animals with grade − (none): D. Accumulation, foamy/macrophage-like cell, alveolus [4]: 6
Number of animals with grade − (none): E. Cellular infiltration, neutrophil, alveolus [4]: 7
